The data set can be described thus: gradient 5% acetonitrile 3 min, to 50% in 2 min, to 85% in 15 min, held 3 min, 100 µL/min. The following applies: column: Zorbax Extend-C18 2.1 x 50 mm; eluents: water / acetonitrile, 0.1% formic acid. The procedure, abridged:
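Pure standards were run in mixtures of ~100 molecules by HPLC coupled to a quadrupole time-of-flight mass spectrometer. The column was a Zorbax Extend-C18 (2.1 × 50 mm, 1.8 μm) at 100 μL/min, with water and acetonitrile each containing 0.1% formic acid, in positive and negative ionization mode. Dead and dwell volumes were 40 μL and 900 μL. Retention time was taken from computationally picked adduct peaks, each manually inspected, with data collected over 3 months.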
In turn, `Cc1cccc(Nc2c(-c3nc(C)no3)cnc3nc(C)ccc23)c1` displayed an RP-LC retention time of 762 s. With `COc1ccc(NC(=O)C2CC(=O)N(c3ccc4oc(C)nc4c3)C2)cc1` (stereo not given) the figure was 706 s; with `CCc1ccc(S(=O)(=O)NCC(c2cccs2)N2CCOCC2)s1` (stereo not given), 644 s. As for `Cc1oc2ccc(NS(=O)(=O)c3ccc(F)cc3)cc2c1C(=O)O`, the RP-LC retention time came out at 742 s.

Turning to `CCOCCCNC(=O)N1CCCC(c2nn[nH]n2)C1` (stereo not given), the RP-LC retention time turned out to be 591 s. With `Cc1cc(C)cc(C(=O)N2CCC(c3nc4ccncc4n3C)C2)c1` (stereo not given) the figure was 547 s; with `COc1ccc(CNC(=O)N2c3ccccc3CC2c2nc(C3CC3)no2)cc1` (stereo not given), 1180 s. With `Cc1cccc(Cn2c(=O)n(CCNC(=O)C3CCCO3)c3ncccc32)c1` (stereo not given) the figure was 715 s; with `Cc1ccc(NC(=O)CSc2nnc3c4cc(-c5ccccc5)nn4ccn23)c(Cl)c1`, 957 s.

The molecule `Cc1nc(-c2cccc(-c3noc(-c4cncc(Br)c4)n3)c2)cs1` returned an RP-LC retention time of 1230 s. With `COc1cccc(-c2ccc3nc(N4CCC(C(=O)N5CCCC5)CC4)sc3n2)c1` the figure was 912 s; with `COc1ccc(C(=O)N2CCc3ccc(C(=O)NC4CCN(C)CC4)cc32)cc1`, 618 s. With `Clc1ccc(-c2noc(Cc3nc(-c4ccc5c(c4)OCO5)cs3)n2)cc1` the figure was 1260 s; with `CC1CCN(S(=O)(=O)c2ccc(-c3nnc(C(=O)NCCC4=CCCCC4)o3)cc2)CC1`, 1190 s; with `CCOC(=O)c1noc2nc(C)nc(Nc3ccc(OC)cc3)c12`, 938 s. With `Cn1cc(CCNC(=O)c2ccccc2C(F)(F)F)c2cccnc21` the figure was 700 s. The molecule `CN(C(=O)Cc1ccccc1)[C@H](CN1CCCC1)c1ccccc1` yielded an RP-LC retention time of 726 s. Molecule `CC1=NS(=O)(=O)N(C)C=C1C(=O)OCc1nc(Cc2ccc(C)cc2)no1` gave an RP-LC retention time of 956 s. Regarding `CC1CC(=O)c2cn3ncnc3nc2C1` (stereo not given), the RP-LC retention time is 607 s. With `O=C(c1cccnc1)N1CCC(n2c(-c3ccsc3)nc3cccnc32)C1` (stereo not given) the figure was 576 s. For the molecule `Cc1nn(C)c(C)c1S(=O)(=O)N1CCO[C@@H](COc2ccccn2)[C@@H]1c1ccccc1`, the RP-LC retention time is 850 s. In turn, `Cc1cc(-c2nnc(NC(=O)C(C)(C)Oc3ccc(Cl)cc3)o2)c(C)o1` yielded an RP-LC retention time of 955 s. Regarding `CCc1noc(NC(C)=O)c1-c1ccc(C)c(S(=O)(=O)NC2CCCCC2)c1`, the RP-LC retention time is 839 s.

Molecule `COC(=O)c1cccc(NC(=O)c2csc(-c3cn(C)c4ncccc34)n2)c1` yielded an RP-LC retention time of 984 s. For the molecule `Cc1ccc(CNC(=O)NC2CCN(C(=O)N3C[C@H]4C[C@H](C3)[C@H]3CCCC(=O)N3C4)CC2)cc1`, the RP-LC retention time stood at 681 s. With `COc1ccc(CCNC(=O)CCn2c(=O)sc3ccccc32)cc1OC` the figure was 698 s. With `CCn1cc(S(=O)(=O)NCc2ccccc2C)c2cccnc21` the figure was 853 s. The molecule `CC1CCCN(C(=O)c2cn(-c3ccc(-c4nc(C(C)(C)C)no4)cn3)cn2)C1` (stereo not given) showed an RP-LC retention time of 1080 s. With `Cc1cc(Cl)ccc1NC(=O)N1C[C@@H]2C[C@H](NC(=O)c3ccccc3)[C@H]1C2` the figure was 907 s; with `CCOc1ccc(-c2cc(=O)n(CCCC(=O)Nc3cccc(SC)c3)cn2)cc1`, 847 s.

`O=C(Cc1ccccc1F)N1CCC(Nc2ncnc3c2CCC3)C1` (stereo not given) displayed an RP-LC retention time of 599 s. Regarding `Cc1ccc(NC(=O)N2CCCC2C(=O)NC(C)C)cc1` (stereo not given), the RP-LC retention time stood at 694 s. With `Cc1ccc(NC(=O)N2C[C@@H](F)C[C@H]2C(=O)N2CCCCC2)cc1Cl` the figure was 813 s; with `Cc1ccc(F)c(-n2nnc(C(=O)O)c2-c2ccncc2)c1`, 654 s; with `COc1ccc(NC(=O)Cn2cnc(-c3ccc(F)cc3)cc2=O)c(OC)c1`, 754 s. Molecule `O=C(NCc1cccs1)c1ccc2c(c1)OCCCO2` yielded an RP-LC retention time of 791 s. With `CCOC(=O)c1cnc(Nc2nc(C)c3cc(C)cc(C)c3n2)nc1C` the figure was 657 s. `O=c1ccc(S(=O)(=O)N2CCOCC2)cn1Cc1cccc(Cl)c1` registered an RP-LC retention time of 809 s. With `CC(C)NC(=O)CSc1nnc(CNC(=O)c2ccc(S(=O)(=O)N(C)C)cc2)o1` the figure was 625 s. As for `Cc1nc(-c2ccc(N3CCN(C(=O)c4ccsc4)CC3)nc2)sc1C`, the RP-LC retention time was found to be 803 s. `COc1ccc(NC(=O)c2ccc(-c3ccc(-c4noc(C)n4)cc3C)cc2)cc1OCCN(C)C`: the RP-LC retention time was 788 s. With `CCOC(=O)C1=C(C)N(CC(=O)NC2CCCC2)c2ncnn2C1c1ccc(C)cc1` (stereo not given) the figure was 897 s; with `COc1ccc(-c2nc3cnccn3c2NCCC(=O)NC(C)C)cc1`, 609 s; with `CCCc1cc(N2CCN(C(=O)c3ccncc3)CC2)nc2nnc(CC)n12`, 580 s. `COc1cc(OC)cc(C(=O)N2C[C@@H]3C[C@H](NC(=O)c4ccccc4)[C@H]2C3)c1` came in with an RP-LC retention time of 684 s.

As for `Cc1ccc(C)c(NC(=O)C2CCCN2S(C)(=O)=O)c1` (stereo not given), the RP-LC retention time is 738 s. With `CC1CCCC(NC(=O)CCn2cnc3onc(-c4ccc(F)cc4)c3c2=O)C1C` (stereo not given) the figure was 1050 s; with `O=[N+]([O-])c1c(NCCO)cc(N2CCN(c3ccccn3)CC2)c2nonc12`, 579 s.

Molecule `Cn1c(=O)c(N2CCCC(C(=O)NCc3ccco3)C2)nc2cccnc21` (stereo not given) showed an RP-LC retention time of 788 s.

Regarding `O=C(c1cccs1)N1CCN(c2ccc(=O)n(-c3ccccc3)n2)CC1`, the RP-LC retention time stood at 733 s. The molecule `CC(Cc1cccs1)NC(=O)c1cnccn1` (stereo not given) came in with an RP-LC retention time of 706 s. Regarding `Cn1c(=O)c2c(-c3ccncc3)c(C#N)c(N)nc2n(C)c1=O`, the RP-LC retention time stood at 554 s. With `CCN1c2ccc(F)cc2C(=O)NC12CCN(C(=O)Cc1ccc(Cl)cc1)CC2` the figure was 848 s. With `O=C(O)c1ccc(Nc2c3ccccc3nc3ccccc23)cc1` the figure was 629 s; with `CNC(=O)CCc1nc2ccccc2n(CC(=O)NC(C)CCc2ccccc2)c1=O` (stereo not given), 728 s; with `Cc1cccc(-c2noc(C3CCCN3C(=O)Nc3ccc(F)cc3)n2)c1` (stereo not given), 1010 s. With `O=C(NCCc1ccccc1)N1CCN(c2ncccc2-c2nnc(C3CC3)o2)CC1` the figure was 765 s.

`COCCN1CCC(CNC(=O)Cc2cccc3ccccc23)CC1` returned an RP-LC retention time of 561 s. With `Cn1nc(CNC(=O)COc2ccc(Cl)cc2)c2ccccc21` the figure was 853 s; with `CC(C)CC(=O)N1CCCn2nc(-c3ccncc3)cc2C1`, 543 s. With `CC(NC(=O)c1cccc(NC(=O)c2ccco2)c1)C(=O)N1CCCc2ccccc21` (stereo not given) the figure was 804 s. `CCc1nc2cc(-c3noc(-c4ccc(Br)o4)n3)ccc2o1` showed an RP-LC retention time of 1190 s. With `COc1ccc(C)cc1NC(=O)c1nc(C2CCC2)oc1C` the figure was 1290 s. For the molecule `O=C(C1CCN(S(=O)(=O)c2cc(-c3noc(C4CC4)n3)cs2)CC1)N1CCCCC1`, the RP-LC retention time amounted to 931 s. `Cc1ccccc1S(=O)(=O)N1CCC2(CC1)NCCN=C2NCc1ccc(F)cc1` gave an RP-LC retention time of 730 s. For `Cc1ccc(-n2ncc3c(NCCCN(C)C)ncnc32)cc1Cl`, the RP-LC retention time turned out to be 670 s. `CN(C)C[C@@H]1CN(c2ccncn2)C[C@H]1NC(=O)c1ccc2c(c1)OCO2` had an RP-LC retention time of 527 s.

As to `O=C(Cn1nc(-c2ccco2)ccc1=O)N1CCN(c2ncccn2)CC1`, the RP-LC retention time came to 615 s.

The molecule `CCCN1CCN(C(=O)c2nc3ccccn3c2-c2ccsc2)CC1` had an RP-LC retention time of 576 s. With `COc1ccccc1C(=O)N1CCCC1c1cc(C)on1` (stereo not given) the figure was 723 s; with `Cc1cc(C)cc(NC(=O)c2cc(C)n3nccc3n2)c1`, 1020 s; with `CCNc1nc(C)cc(N2CCN(S(=O)(=O)c3ccccc3C(F)(F)F)CC2)n1`, 732 s.

For `Cc1ccc(NS(=O)(=O)c2cc3n(c2)CCCN(C(C)C)C3=O)cc1`, the RP-LC retention time was found to be 778 s. With `Cc1ccc2nc(C(=O)NCCN(C)C3CCCCC3)cn2c1` the figure was 564 s; with `Cc1cc(C)n(Cc2nc(-c3ccc(NC(=O)C4CCCCC4)cc3)oc2C)n1`, 1000 s.

As to `CC(C)c1noc(-c2cc(=O)n(CC(=O)NCc3ccccc3Cl)c3ccccc23)n1`, the RP-LC retention time is 988 s. In turn, `O=C(Cc1nnc(-c2ccc3ncccc3c2)o1)Nc1cc(F)cc(F)c1` had an RP-LC retention time of 784 s. In turn, `Cn1cc(-c2cc3n(n2)CCC(=O)N3CC(=O)NCc2ccccc2Cl)c2ccccc21` gave an RP-LC retention time of 830 s. With `CCOC(=O)c1nc(N2CCN(Cc3ccc4c(c3)OCO4)CC2)c2ccccc2n1` the figure was 739 s; with `O=C(Cn1c2c(c(=O)n(C3CCCCC3)c1=O)CCC2)NCc1ccc2c(c1)OCO2`, 799 s.

These data come from the METLIN SMRT retention time set (Domingo-Almenara et al. 2019).
